Source: ChEMBL document CHEMBL5726286, “3-oxo-tetrahydro-furo[3,2-B]pyrrol-4(5H)-yl) derivatives I” (2017)

Columns and labels:
Cathepsin S = Cathepsin S (Homo sapiens, UniProt P25774); test: (§1) Enzyme Assay: Recombinant human cathepsins (CatS, CatK, CatL) were purchased from a Enzo Life Sciences. All assays were carried out in 96-well format using a buffer of 50 mM KH2PO4, 50 mM NaCl, 2 mM EDTA, 0.5 mM DTT and 1% Triton-X-100, pH 6.5 for Cathepsin S and a buffer of 50 mM NaOAc, 10 mM EDTA, 1 mM DTT and 0.01% Triton-X-100, pH 5.5 for CatK/L/B. For CatS, the enzyme (0.0007 mU/well) was incubated with fluorogeninc substrate (Z-VVR-AMC, 5 μM) at RT for 10 min. For CatK the enzyme (0.00175 mU/well) was incubated with fluorogeninc substrate (Z-FR-AMC, 40 μM) at RT for 10 min. For CatL, the enzyme (0.000874 mU/well) was incubated with fluorogeninc substrate (Z-VVR-AMC, 40 μM) at RT for 10 min. Flourogenic substrate turnover was detected using a microplate reader (Synergy H4, BioTek). Ki values were calculated using the Cheng Prusoff equation (Cheng & Prosoff 1973).
Cathepsin K = target: T1, Cathepsin K (Homo sapiens, UniProt P43235); test: as §1
T1 sequence (P43235 whole entry): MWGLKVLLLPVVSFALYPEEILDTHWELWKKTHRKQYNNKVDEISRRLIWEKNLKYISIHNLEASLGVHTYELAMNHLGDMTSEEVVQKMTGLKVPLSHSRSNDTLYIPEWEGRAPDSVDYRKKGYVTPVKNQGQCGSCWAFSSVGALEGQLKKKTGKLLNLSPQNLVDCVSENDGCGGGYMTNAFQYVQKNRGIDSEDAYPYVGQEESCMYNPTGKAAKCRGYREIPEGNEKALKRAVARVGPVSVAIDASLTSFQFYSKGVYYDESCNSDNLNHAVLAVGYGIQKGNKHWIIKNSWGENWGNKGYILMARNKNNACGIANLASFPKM

Chain of Cathepsin S (P25774 whole entry): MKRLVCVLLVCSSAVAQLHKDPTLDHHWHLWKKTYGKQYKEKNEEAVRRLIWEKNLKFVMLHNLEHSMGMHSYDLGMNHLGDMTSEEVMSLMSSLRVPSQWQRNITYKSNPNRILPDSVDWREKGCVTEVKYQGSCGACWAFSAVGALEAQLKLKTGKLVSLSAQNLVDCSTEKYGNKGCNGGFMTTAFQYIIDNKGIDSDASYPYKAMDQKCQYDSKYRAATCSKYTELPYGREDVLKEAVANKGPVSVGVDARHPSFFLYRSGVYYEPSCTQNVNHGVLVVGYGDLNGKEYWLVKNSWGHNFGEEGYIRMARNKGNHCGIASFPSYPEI

Row | Compound | Ki (Cathepsin S) | Ki (Cathepsin K)
1 | O=C(N[C@H](C(=O)N1C[C@H](Cl)[C@H]2OCC(=O)[C@H]21)C1CCCCC1)c1ccc(-c2cccnc2)o1 | 0.612 µM | 0.054 µM
2 | O=C(N[C@H](C(=O)N1C[C@H](Cl)[C@H]2OCC(=O)[C@H]21)C1CCCCC1)c1cnc(-c2ccnnc2)o1 | 0.527 µM | 0.278 µM
3 | COc1ccc(-c2ccc(C(=O)N[C@H](C(=O)N3C[C@H](Cl)[C@H]4OCC(=O)[C@H]43)C3CCCCC3)s2)nn1 | 0.344 µM | 0.016 µM
4 | O=C(N[C@H](C(=O)N1C[C@H](Cl)[C@H]2OCC(=O)[C@H]21)C1CCCCC1)c1ccc(-c2ccncn2)o1 | 0.699 µM | 0.262 µM

The next molecules have a lower Ki (Cathepsin K) than those just listed; values first:

Row | Ki (Cathepsin S) | Ki (Cathepsin K) | Compound
5 | 0.238 µM | 0.009 µM | Cc1nccc(-c2ccc(C(=O)N[C@H](C(=O)N3C[C@H](Cl)[C@H]4OCC(=O)[C@H]43)C3CCCCC3)s2)n1
6 | – | 0.014 µM | O=C(N[C@H](C(=O)N1C[C@H](Cl)[C@H]2OCC(=O)[C@H]21)C1CCCCC1)c1nnc(-c2ccncc2)s1
